Where two headings read alike, the source gives them in different places.
Test system: Adjuvant-Induced Arthritis
Test: Adjuvant-induced arthritis in the rat (Mycobacterium butyricum, subplantar; inhibition of hindpaw edema, primary and secondary lesions)
Type: in vivo, rat (adult male Wistar-Lewis)
Conditions: for % Inhibition of Lesions, Secondary (mean ± SE): contralateral non-injected paw, day 16; for % Inhibition of Lesions, Primary (mean ± SE): injected paw, day 4; for ED50: Rattus norvegicus
Procedure: Adjuvant arthritis was induced in adult male Wistar-Lewis rats weighing 250-270 grams each (Charles River Breeding Laboratories, Kingston, N.Y.) by a single subplantar injection of 1 mg of Mycobacterium butyricum (Difco Laboratories, Lot #0640-33) suspended in 0.1 ml mineral oil as described by Walz et al. (Proc. Soc. Exptl. Biol. Med., 136: 907-910, 1971). Seven rats were used in each group. Orally administered drugs were dissolved in water and dilute sodium hydroxide was added as necessary to ensure solution; control groups received only water. After neutralization of the solutions to pH 7.0, a volume of 10 ml/kg body weight was given by intubation with a blunt end, 18-gauge needle. Doses of each drug were given daily starting 1 day before the injection of adjuvant and continuing until 16 days after the induction of the arthritic lesion.
The initial hindpaw volumes (Vi) were measured on the day of adjuvant injection and the resultant swelling was determined on the injected paw (Vf - Vi) on the 4th day following the adjuvant injection. This was considered to be the primary response or lesion. The swelling (Vf - Vi) measured 16 days after adjuvant injection on the contralateral, non-injected hindpaw constituted the secondary response or lesion. The rats were weighed at the start of the experiments as well as 4 and 16 days after the induction of the disease. Percent inhibition of edema was calculated according to the following formula: [formula]

With Cc1nc(-c2csc(NC(=N)N)n2)c[nH]1.Cl.Cl [Compound A, 2-Guanidino-4-(2-methyl-4-imidazolyl)thiazole Dihydrochloride] the “effect on the course of adjuvant arthritis in rats (in words)” value (compound alone) was “beneficial effect”, the “% Inhibition of Lesions, Secondary (mean ± SE)” value (oral 1.0 mg/kg daily) was 3 (3) % and the “% Inhibition of Lesions, Primary (mean ± SE)” value (oral 1.0 mg/kg daily) was 0 (6) %. For the same molecule, the “% Inhibition of Lesions, Secondary (mean ± SE)” value (oral 3.3 mg/kg daily) was 28 (4) %, the “% Inhibition of Lesions, Primary (mean ± SE)” value (oral 3.3 mg/kg daily) was 0 (3) % and the “% Inhibition of Lesions, Secondary (mean ± SE)” value (oral 10.0 mg/kg daily) was 27 (3) %. For the same molecule, the “% Inhibition of Lesions, Primary (mean ± SE)” value (oral 10.0 mg/kg daily) was 2 (2) %, the “ED50 (in words)” value (oral, linear regression of Table I data, secondary lesions) was “no reliable ED50 could be extrapolated” and the “activity against primary lesions (in words)” value (oral, primary lesions) was “no significant activity”. For the same molecule, the “activity against secondary lesions (in words)” value (oral, secondary lesions) was “significant activity”.
With CN1C(C(=O)Nc2ccccn2)=C(O)c2ccccc2S1(=O)=O [Piroxicam, reference compound] the ED50 (oral, linear regression of Table I data, primary lesions, read-out: ED50 against primary lesions) was 2.6 mg/kg, the ED50 (oral, linear regression of Table I data, secondary lesions, read-out: ED50 against secondary lesions) was 0.45 mg/kg and the “% Inhibition of Lesions, Secondary (mean ± SE)” value (oral 0.10 mg/kg daily) was 26 (2) %. The “% Inhibition of Lesions, Primary (mean ± SE)” value (oral 0.10 mg/kg daily) was 29 (4) %, the “% Inhibition of Lesions, Secondary (mean ± SE)” value (oral 0.33 mg/kg daily) was 43 (4) % and the “% Inhibition of Lesions, Primary (mean ± SE)” value (oral 0.33 mg/kg daily) was 33 (8) %. The “% Inhibition of Lesions, Secondary (mean ± SE)” value (oral 1.0 mg/kg daily) was 64 (3) % and the “% Inhibition of Lesions, Primary (mean ± SE)” value (oral 1.0 mg/kg daily) was 45 (7) %.

Source: patent publication US4591595A, “2-guanidino-4-(2-methyl-4-imidazolyl)thiazoles in the treatment of rheumatoid arthritis” (Pfizer Inc., priority 1985, dated 1986)
